Columns and labels:
Conditions in all cases: incubation time: 72 h
[1] = test system: MDA-MB-436; assay: drug sensitivity score (DSS), CellTiter-Glo (DSS (AUC-based score)); higher = stronger drug effect (viability inhibition or cytotoxicity); extreme values may be limits of the assay
In short: (§1)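 The area under the fitted dose-response curve was used to calculate the drug sensitivity score. Cells from breast cancer lines were incubated for 72 h in 384-well plates with compound at 5 concentrations spaced 10-fold over a 10,000-fold range specific to each compound. Plates were read for CellTox Green and then CellTiter-Glo, and normalised to 0.1 % DMSO and a positive kill control.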

[2] = test system: CAL-85-1; assay: as above
In short: as §1

[3] = test system: MDA-MB-453; assay: as above
In short: as §1

[4] = test system: Hs578T; assay: as above
In short: as §1

[5] = test system: MFM-223; assay: as above
In short: as §1

[6] = test system: CAL-120; assay: as above
In short: as §1

[7] = test system: CAL-148; assay: as above
In short: as §1

[8] = test system: MCF-10A; assay: as above
In short: as §1

[9] = test system: MDA-MB-468; assay: as above
In short: as §1

[10] = test system: HCC1937; assay: as above
In short: as §1

[11] = test system: BT-549; assay: as above
In short: as §1

[12] = test system: BT-474; assay: as above
In short: as §1

[13] = test system: CAL-51; assay: as above
In short: as §1

[14] = test system: HCC1143; assay: as above
In short: as §1

[15] = test system: HDQ-P1; assay: as above
In short: as §1

[16] = test system: SK-BR-3; assay: as above
In short: as §1

[17] = test system: DU-4475; assay: as above
In short: as §1

[18] = test system: HCC1599; assay: as above
In short: as §1

[19] = test system: MDA-MB-231; assay: as above
In short: as §1

[20] = test system: CAL-85-1; assay: normalised viability (% of control), CellTiter-Blue; higher = more viable cells (about 100 = DMSO control)
In short: (§2)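 384-well plates were pre-loaded with compound in 5 µl medium before 20 µl of breast cancer cell suspension was seeded. Following 72 h incubation, 2.5 µl CellTiter-Blue reagent was added for 2 h at 37 °C. Fluorescence was read at 560/590 nm and plates were normalised to vehicle (100) and a positive kill control (0), checked by Z'-factor. Normalised viability is reported at a single listed concentration of the series.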

[21] = test system: MDA-MB-453; assay: as above
In short: as §2

[22] = test system: Hs578T; assay: as above
In short: as §2

[23] = test system: CAL-120; assay: as above
In short: as §2

[24] = test system: BT-474; assay: as above
In short: as §2

[25] = test system: CAL-51; assay: as above
In short: as §2

[26] = test system: HDQ-P1; assay: as above
In short: as §2

[27] = test system: MDA-MB-231; assay: as above
In short: as §2

Structure (SMILES): CN1CCN(c2ccc3nc(-c4c(N)c5c(F)cccc5[nH]c4=O)[nH]c3c2)CC1 [Dovitinib]
- drug sensitivity score [1]: 0
- drug sensitivity score [2]: 0
- drug sensitivity score [3]: 0
- drug sensitivity score [4]: 0
- drug sensitivity score [5]: 0
- drug sensitivity score [6]: 0.000114
- drug sensitivity score [7]: 0
- drug sensitivity score [8]: 0
- drug sensitivity score [9]: 0
- drug sensitivity score [10]: 0
- drug sensitivity score [11]: 0
- drug sensitivity score [12]: 0
- drug sensitivity score [13]: 0
- drug sensitivity score [14]: 0
- drug sensitivity score [15]: 0
- drug sensitivity score [16]: 0
- drug sensitivity score [17]: 0
- drug sensitivity score [18]: 0
- drug sensitivity score [19]: 0
- normalised viability ([20]; 10 nM): 89.2%
- normalised viability ([21]; 10 nM): 87.7%
- normalised viability ([22]; 100 nM): 87%
- normalised viability ([23]; 100 nM): 86.4%
- normalised viability ([24]; 100 nM): 115%
- normalised viability ([25]; 10 nM): 111%
- normalised viability ([26]; 10 nM): 95.7%
- normalised viability ([27]; 100 nM): 80.2%

Structure (SMILES): O=c1[nH]cc(F)c(=O)[nH]1 [Fluorouracil]
- drug sensitivity score [1]: 3.61
- drug sensitivity score [2]: 8.63
- drug sensitivity score [3]: 0
- drug sensitivity score [4]: 0
- drug sensitivity score [5]: 0
- drug sensitivity score [6]: 0
- drug sensitivity score [7]: 0
- drug sensitivity score [8]: 0
- drug sensitivity score [9]: 0
- drug sensitivity score [10]: 0
- drug sensitivity score [11]: 0
- drug sensitivity score [12]: 0
- drug sensitivity score [13]: 0
- drug sensitivity score [14]: 0
- drug sensitivity score [15]: 0
- drug sensitivity score [16]: 1.79
- drug sensitivity score [17]: 0
- drug sensitivity score [18]: 0
- drug sensitivity score [19]: 0
- normalised viability ([20]; 10 nM): 94.7%
- normalised viability ([21]; 10 nM): 116%
- normalised viability ([22]; 100 nM): 115%
- normalised viability ([23]; 100 nM): 111%
- normalised viability ([24]; 100 nM): 116%
- normalised viability ([25]; 10 nM): 105%
- normalised viability ([26]; 10 nM): 103%
- normalised viability ([27]; 100 nM): 106%

Structure (SMILES): COC1=CC(c2cc3ccccc3[nH]2)=N/C1=C\c1[nH]c(C)cc1C [Obatoclax]
- drug sensitivity score [1]: 1.64
- drug sensitivity score [2]: 4.01
- drug sensitivity score [3]: 2.69
- drug sensitivity score [4]: 0
- drug sensitivity score [5]: 0
- drug sensitivity score [6]: 0
- drug sensitivity score [7]: 0
- drug sensitivity score [8]: 0
- drug sensitivity score [9]: 3.12
- drug sensitivity score [10]: 7.4
- drug sensitivity score [11]: 5.4
- drug sensitivity score [12]: 7.09
- drug sensitivity score [13]: 4.52
- drug sensitivity score [14]: 0
- drug sensitivity score [15]: 0
- drug sensitivity score [16]: 1.08
- drug sensitivity score [17]: 0.576
- drug sensitivity score [18]: 0
- drug sensitivity score [19]: 7.72
- normalised viability ([20]; 10 nM): 89.4%
- normalised viability ([21]; 10 nM): 80.6%
- normalised viability ([22]; 100 nM): 73.4%
- normalised viability ([23]; 100 nM): 25.9%
- normalised viability ([24]; 100 nM): 70.7%
- normalised viability ([25]; 10 nM): 109%
- normalised viability ([26]; 10 nM): 90.4%
- normalised viability ([27]; 100 nM): 47.7%

Structure (SMILES): O=C(c1ccc(OCCN2CCCCC2)cc1)c1c(-c2ccc(O)cc2)sc2cc(O)ccc12 [Raloxifene]
- drug sensitivity score [1]: 0
- drug sensitivity score [2]: 1.62
- drug sensitivity score [3]: 0
- drug sensitivity score [4]: 0
- drug sensitivity score [5]: 1.56
- drug sensitivity score [6]: 0
- drug sensitivity score [7]: 0
- drug sensitivity score [8]: 0
- drug sensitivity score [9]: 2.72
- drug sensitivity score [10]: 0
- drug sensitivity score [11]: 0
- drug sensitivity score [12]: 0.666
- drug sensitivity score [13]: 0
- drug sensitivity score [14]: 0
- drug sensitivity score [15]: 0
- drug sensitivity score [16]: 0
- drug sensitivity score [17]: 0
- drug sensitivity score [18]: 1.37
- drug sensitivity score [19]: 0
- normalised viability ([20]; 10 nM): 101%
- normalised viability ([21]; 10 nM): 107%
- normalised viability ([22]; 100 nM): 104%
- normalised viability ([23]; 100 nM): 102%
- normalised viability ([24]; 100 nM): 107%
- normalised viability ([25]; 10 nM): 99.6%
- normalised viability ([26]; 10 nM): 90.2%
- normalised viability ([27]; 100 nM): 89.3%

Structure (SMILES): Cn1cnc2c(F)c(Nc3ccc(Br)cc3F)c(C(=O)NOCCO)cc21 [MEK-162]
- drug sensitivity score [1]: 0
- drug sensitivity score [2]: 0
- drug sensitivity score [3]: 0
- drug sensitivity score [4]: 0
- drug sensitivity score [5]: 0
- drug sensitivity score [6]: 0.188
- drug sensitivity score [7]: 0
- drug sensitivity score [8]: 13.3
- drug sensitivity score [9]: 0
- drug sensitivity score [10]: 0
- drug sensitivity score [11]: 0
- drug sensitivity score [12]: 2.42
- drug sensitivity score [13]: 0
- drug sensitivity score [14]: 0
- drug sensitivity score [15]: 5.43
- drug sensitivity score [16]: 0
- drug sensitivity score [17]: 12.5
- drug sensitivity score [18]: 0
- drug sensitivity score [19]: 0
- normalised viability ([20]; 1 nM): 98.1%
- normalised viability ([21]; 1 nM): 113%
- normalised viability ([22]; 10 nM): 81.5%
- normalised viability ([23]; 10 nM): 92.2%
- normalised viability ([24]; 10 nM): 114%
- normalised viability ([25]; 1 nM): 111%
- normalised viability ([26]; 1 nM): 114%
- normalised viability ([27]; 10 nM): 92.5%

From the supplement of paper PMC4862054
